Values quoted from earlier work in US20040115266A1, “Oral itraconazole formulations and methods of making the same” (priority 2004, published 2004).

CCC(C)n1ncn(-c2ccc(N3CCN(c4ccc(OCC5COC(Cn6cncn6)(c6ccc(Cl)cc6Cl)O5)cc4)CC3)cc2)c1=O (single isomer, unassigned; (+)) [Itraconazole, (+)-cis-4-[4-[4-[4-[[2-(2,4-dichlorophenyl)-2-(1H-1,2,4-triazol-1-ylmethyl)-1,3-dioxolan-4-yl]methoxy]phenyl]-1-piperazinyl]phenyl]-2,4-dihydro-2-(1-methylpropyl)-3H-1,2,4-triazol-3-one]
0.1 N Hydrochloric acid solubility (0.1 N Hydrochloric acid): < 6 micrograms per milliliter
water solubility (water): less than 1 microgram per milliliter
